Laboratory results reported in patent publication US8686050B2, “Diglycidic ether derivative therapeutics and methods for their use” (British Columbia Cancer Agency Branch, priority 2008, dated 2014).
Entries after “also recorded” stand apart in the source; their conditions may differ. Structures can show the parent of a compound that is named as a salt.

Legend:
[1] = target: T1, progesterone receptor (PR) (Homo sapiens, UniProt P06401); assay: PRE-luciferase reporter, steroid receptor specificity; type: cell-based; conditions: LNCaP cells transfected with PR, steroid 10 nM; 185-9-2 5 μg/ml, bicalutamide 10 μM
T1 construct: Cells were co-transfected with expression plasmids for full-length hGR, PRβ and the relative reporter; expressed in transfected cells; host or cells: LNCaP
T1 sequence (P06401 1-933): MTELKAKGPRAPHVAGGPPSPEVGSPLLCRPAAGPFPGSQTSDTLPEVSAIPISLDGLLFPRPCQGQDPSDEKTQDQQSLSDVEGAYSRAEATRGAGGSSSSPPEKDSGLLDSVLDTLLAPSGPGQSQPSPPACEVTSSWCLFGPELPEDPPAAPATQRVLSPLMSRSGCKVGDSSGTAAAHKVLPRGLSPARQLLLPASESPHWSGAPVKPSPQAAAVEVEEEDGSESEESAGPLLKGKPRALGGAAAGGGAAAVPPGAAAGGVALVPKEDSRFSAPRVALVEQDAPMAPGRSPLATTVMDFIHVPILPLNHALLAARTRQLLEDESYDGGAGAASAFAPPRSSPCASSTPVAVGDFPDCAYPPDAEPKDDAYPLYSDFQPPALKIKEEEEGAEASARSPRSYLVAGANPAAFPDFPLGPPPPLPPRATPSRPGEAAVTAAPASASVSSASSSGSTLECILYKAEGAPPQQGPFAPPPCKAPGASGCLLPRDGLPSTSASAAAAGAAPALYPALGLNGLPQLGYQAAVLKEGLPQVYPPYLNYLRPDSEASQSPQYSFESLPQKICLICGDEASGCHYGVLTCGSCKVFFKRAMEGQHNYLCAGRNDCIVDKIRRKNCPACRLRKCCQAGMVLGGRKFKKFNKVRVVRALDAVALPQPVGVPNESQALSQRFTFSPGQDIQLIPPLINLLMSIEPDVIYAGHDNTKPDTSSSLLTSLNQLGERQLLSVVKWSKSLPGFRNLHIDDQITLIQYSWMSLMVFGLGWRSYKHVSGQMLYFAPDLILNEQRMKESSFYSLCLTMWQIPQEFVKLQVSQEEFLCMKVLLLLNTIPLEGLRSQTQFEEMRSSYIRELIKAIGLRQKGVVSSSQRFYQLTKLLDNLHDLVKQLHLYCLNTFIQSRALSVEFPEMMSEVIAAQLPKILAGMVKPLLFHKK
Protocol: Sequence similarities of amino acids in the AR with related human steroid receptors PR and glucocorticoid receptor (GR) are significant in some domains such as the DBD. The AR NTD shares less than 15% homology with the PR and GR, but these receptors interact with some of the same proteins (eg., SRC-1 and CBP). […] Cells were co-transfected with expression plasmids for full-length hGR, PRβ and the relative reporter (i.e., pGR-Luc or PRE-E1b-Luc reporters). Cells were then treated with ethanol vehicle, dexamethasone (GR), 4-pregnene-3,20 dione (progesterone) (PR) followed by measurement of luciferase activity. […] Some antiandrogens currently used in the clinic have progestational and glucocorticoidal activities. In adult males, the role of the PR activity is unclear.

LNCaP xenografts = assay: LNCaP subcutaneous xenografts in castrated mice; type: in vivo, NOD-SCID male mice
Protocol: (§1) Six to eight-week old male athymic SCID mice were inoculated subcutaneously in the flank region via a 27-gauge needle with a 150 μl suspension of LNCaP or PC3 human prostate cancer cells (1×10^6 cells). The inoculations took place while the animal was under isofluorane anaesthesia. The tumor take rate is approximately 75%. Mice bearing tumors of 100 mm^3 were randomly assigned to treatment groups. Castration was performed as described below. Tumor volume (formula: L×W×H×0.5236) was measured in mice bearing LNCaP subcutaneous tumors that became palpable or visible and at least 40 mm^3. The animals were monitored daily and tumors were measured every 5 days.

AR = target: T2, AR (Homo sapiens, UniProt P10275, T878A); assay: Nuclear translocation of AR in LNCaP cells (fractionation, fluorescence microscopy); type: cell-based; design: LNCaP cells express endogenous AR and secrete prostate-specific antigen (PSA); endogenous in cells; host or cells: LNCaP
T2 sequence (P10275 1-920 T878A): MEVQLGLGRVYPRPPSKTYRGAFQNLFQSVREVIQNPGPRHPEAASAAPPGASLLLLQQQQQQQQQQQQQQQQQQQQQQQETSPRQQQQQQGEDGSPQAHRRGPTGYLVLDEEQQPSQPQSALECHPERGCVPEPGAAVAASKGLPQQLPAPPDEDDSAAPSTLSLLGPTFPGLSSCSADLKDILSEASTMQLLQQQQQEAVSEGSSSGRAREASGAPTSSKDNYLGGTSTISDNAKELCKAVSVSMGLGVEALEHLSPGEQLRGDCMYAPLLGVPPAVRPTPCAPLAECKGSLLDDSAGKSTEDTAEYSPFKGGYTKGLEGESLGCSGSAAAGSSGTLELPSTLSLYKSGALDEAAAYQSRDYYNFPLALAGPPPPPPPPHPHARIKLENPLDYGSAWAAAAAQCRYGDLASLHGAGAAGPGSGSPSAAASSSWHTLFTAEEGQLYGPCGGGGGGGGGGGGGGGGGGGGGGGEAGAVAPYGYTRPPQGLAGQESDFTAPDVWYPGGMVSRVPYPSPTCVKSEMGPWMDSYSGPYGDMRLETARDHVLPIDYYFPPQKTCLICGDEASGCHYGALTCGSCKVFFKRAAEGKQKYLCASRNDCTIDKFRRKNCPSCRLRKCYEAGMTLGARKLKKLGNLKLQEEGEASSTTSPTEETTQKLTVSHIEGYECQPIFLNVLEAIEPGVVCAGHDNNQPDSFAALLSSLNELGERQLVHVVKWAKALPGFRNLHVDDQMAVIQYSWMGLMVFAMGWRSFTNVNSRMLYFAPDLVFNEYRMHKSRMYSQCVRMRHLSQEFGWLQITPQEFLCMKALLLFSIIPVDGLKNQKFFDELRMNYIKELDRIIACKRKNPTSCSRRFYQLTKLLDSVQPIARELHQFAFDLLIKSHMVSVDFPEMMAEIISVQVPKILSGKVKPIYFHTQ

PC3 xenografts = assay: PC3 subcutaneous xenografts in non-castrated mice; type: in vivo, NOD-SCID male mice; conditions: 20 mg/kg body weight every 5 days, listed as PNG01-185-017-9-2, 20 mg/kg
Protocol: as §1

**Q.** Which results are given for `CC(C)(c1ccc(OCC(O)CO)cc1)c1ccc(OCC(O)CCl)cc1` (stereo not shown) [185-9-2, BADGE.HCL.H2O]?
**A.** PRE-luciferase activity in response to ligand [1]: did NOT inhibit; also recorded: does NOT inhibit; size of LNCaP xenograft tumors, intratumoral injection (LNCaP xenografts; castrated mice, I.T. every 5 days, 20 mg/kg body weight, 20 mg/kg): reduced the size of the tumors; also recorded: significantly reduce the tumors; size of LNCaP xenograft tumors, intravenous injection (LNCaP xenografts; castrated mice, I.V. 50 mg/kg body weight every other day): reduced the size of the tumors; LNCaP tumor volume at the duration (end) of the experiment, intratumoral (LNCaP xenografts; castrated mice, i.t. every 5 days, five doses): 35.4±15.7 mm^3; LNCaP tumor volume within 2 weeks of i.v. injection (LNCaP xenografts; castrated mice, i.v. 50 mg/kg every other day): 64.3±29.6 mm^3; apoptosis in xenografts (TUNEL) (LNCaP xenografts; intravenous delivery, IHC): increased apoptosis; proliferation in xenografts (Ki67) (LNCaP xenografts; intravenous delivery, IHC): reduced proliferation; nuclear translocation of the AR in the absence of androgen (AR; compound on its own): did not cause nuclear translocation of the AR; nuclear translocation of AR protein in response to androgen (AR; pretreated 1 hr, 10 nM DHT): nor did it prevent nuclear translocation of AR protein; PC3 xenograft tumor growth (PC3 xenografts): had a small effect on PC3 tumor growth but did not reduce tumor burden; also recorded: did not reduce tumors but did slightly slow the growth
